Measurements taken from patent publication US9592268B2, “Endothelium protective materials and methods of use” (CORNELL UNIVERSITY, priority 2011, dated 2017).
Values belong to the molecule of their own block, whether it stands above or below them.

Experiments:
[1] = target: T1, murine recombinant apoM (r-apoM) (Mus musculus, UniProt Q9Z1R3); experiment: intrinsic fluorescence quenching of r-apoM by S1P; type: binding; conditions: r-apoM 0.7 μM; S1P 0-3.2 μmol/L; excitation 295 nm, emission 345 nm
T1 construct: A truncated mouse r-apoM containing the lipocalin domain but lacking the hydrophobic signal peptide was produced in Escherichia coli; made in house; host or cells: Escherichia coli
T1 sequence (Q9Z1R3 22-190): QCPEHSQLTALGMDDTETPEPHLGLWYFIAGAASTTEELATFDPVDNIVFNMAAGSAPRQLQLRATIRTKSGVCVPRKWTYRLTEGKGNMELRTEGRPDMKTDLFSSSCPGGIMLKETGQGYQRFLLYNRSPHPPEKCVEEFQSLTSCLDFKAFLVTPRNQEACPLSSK
Description: FIG. 3. […] A truncated mouse r-apoM containing the lipocalin domain but lacking the hydrophobic signal peptide was produced in Escherichia coli. The r-apoM (0.7 μM) was incubated with increasing concentrations of S1P (final concentration: 0-3.2 μmol/L). The intrinsic fluorescence of apoM was measured with excitation at 295 nm and emission at 345 nm. The data are mean±SEM (n=3).
Intrinsic fluorescence quenching was studied after addition of S1P to 0.7 μM murine recombinant apoM (r-apoM) (SEVVANA et al., J. Mol. Biol, 393:920-936 (2009)). Because it is possible that murine r-apoM binds and contains myristic acid in a manner similar to that of its human counterpart (SEVVANA et al., J. Mol. Biol, 393:920-936 (2009)), the binding data are reported as IC50 values. This approach also allows S1P binding to murine r-apoM to be compared directly with the previous data on human apoM-S1P binding.

[2] = target: T2, recombinant human apoM (Homo sapiens, UniProt O95445); conditions: recombinant human apoM expressed in E. coli; SEVVANA et al. 2009; read-out: IC50 for displacement of myristic acid from apoM; cited from earlier work
T2 construct: host or cells: E. coli
T2 sequence (O95445 whole entry): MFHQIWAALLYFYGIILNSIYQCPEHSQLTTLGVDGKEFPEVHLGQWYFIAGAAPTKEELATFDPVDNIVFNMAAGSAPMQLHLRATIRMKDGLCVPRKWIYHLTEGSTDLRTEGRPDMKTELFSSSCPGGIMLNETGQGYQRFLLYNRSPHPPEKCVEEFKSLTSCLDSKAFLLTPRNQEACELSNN

[3] = system: HUVEC; experiment: HUVEC migration (chemotaxis chamber) assay; type: cell-based, human
Description: FIG. 4. ApoM-bound S1P activates S1P1-mediated intracellular signaling pathways and affects migration of HUVEC. (A) Confocal microscopy of HEK293 cells stably expressing S1P1-GFP. Cells were serum starved, stimulated for 1 h with indicated ligands, fixed and imaged. ApoM^+HDL (equivalent to ˜100 nM S1P as determined by LC/MS/MS) or ApoM^−HDL was used at 100 μg/ml. Fatty acid free BSA and r-apoM were complexed with S1P and used at the final concentration of 100 nM (equimolar for both protein and lipid). Scale bar, 20 μm. […] Activation of p44/42, and Akt was examined by western blot analysis using phospho-specific antibodies. (C) HUVEC were serum starved and pre-treated with 1 μM VPC44116 for 30 min where indicated and subjected to migration assay with 10 μg/ml apoM^+HDL (10 nM S1P) or 10 μg/ml apoM^−HDL or 10 nM albumin-S1P. Data are mean±SD, n=3. * p<0.01. (D) Microscopy of HUVEC that were serum starved and stimulated with 100 μg/ml apoM^+HDL, apoM^−HDL, 100 nM albumin-S1P, r-apoM-S1P or 100 nM S1P-free r-apoM for 1 h. […] Scale bar, 20 μm. […]
General Methods. […] Numerical differences were analyzed with two-tailed Student's t test.
Migration Assays. […] The filter was scanned, and the color density of each well was quantified using ImageJ software. […]

[4] = system: endogenous S1P1 receptor; experiment: p44/42 and Akt activation in HUVEC (western blot, phospho-specific antibodies); type: cell-based, human; conditions: 1 μM VPC44116 pre-treatment 30 min
Description: (§1) FIG. 4. ApoM-bound S1P activates S1P1-mediated intracellular signaling pathways and affects migration of HUVEC. (A) Confocal microscopy of HEK293 cells stably expressing S1P1-GFP. Cells were serum starved, stimulated for 1 h with indicated ligands, fixed and imaged. ApoM^+HDL (equivalent to ˜100 nM S1P as determined by LC/MS/MS) or ApoM^−HDL was used at 100 μg/ml. Fatty acid free BSA and r-apoM were complexed with S1P and used at the final concentration of 100 nM (equimolar for both protein and lipid). Scale bar, 20 μm. […] Activation of p44/42, and Akt was examined by western blot analysis using phospho-specific antibodies. (C) HUVEC were serum starved and pre-treated with 1 μM VPC44116 for 30 min where indicated and subjected to migration assay with 10 μg/ml apoM^+HDL (10 nM S1P) or 10 μg/ml apoM^−HDL or 10 nM albumin-S1P. Data are mean±SD, n=3. * p<0.01. (D) Microscopy of HUVEC that were serum starved and stimulated with 100 μg/ml apoM^+HDL, apoM^−HDL, 100 nM albumin-S1P, r-apoM-S1P or 100 nM S1P-free r-apoM for 1 h. […] Scale bar, 20 μm. HUVEC were serum starved and stimulated for 5 min with 30 nM albumin-S1P, r-apoM-S1P, 10 μg/mL ApoM+ HDL, or 30 nM S1P-free r-apoM (E) or with increasing concentrations of albumin or r-apoM-S1P (F). […]
(§2) General Methods. […] Numerical differences were analyzed with two-tailed Student's t test. […]

[5] = target: T3, S1P1 receptor (Homo sapiens, UniProt P21453); experiment: S1P1 internalization in HEK293 cells stably expressing S1P1-GFP; type: cell-based; conditions: stimulated 1 h; HDL 100 μg/ml; S1P complexes 100 nM
T3 construct: expressed in transfected cells
T3 sequence (P21453 whole entry): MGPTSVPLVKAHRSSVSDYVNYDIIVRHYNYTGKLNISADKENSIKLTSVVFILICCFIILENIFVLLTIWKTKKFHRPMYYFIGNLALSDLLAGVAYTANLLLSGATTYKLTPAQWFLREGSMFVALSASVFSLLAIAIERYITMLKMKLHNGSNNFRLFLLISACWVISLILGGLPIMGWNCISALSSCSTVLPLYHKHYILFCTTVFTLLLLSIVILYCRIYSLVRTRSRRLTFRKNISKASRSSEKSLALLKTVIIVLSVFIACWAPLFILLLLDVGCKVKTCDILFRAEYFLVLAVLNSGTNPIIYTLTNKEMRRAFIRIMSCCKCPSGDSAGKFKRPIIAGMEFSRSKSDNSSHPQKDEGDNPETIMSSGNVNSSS
Description: as §1, §2

[6] = system: HUVEC; experiment: adherens junction assembly assay (VE-cadherin immunostaining) in HUVEC; type: cell-based, human; conditions: HUVEC stimulated 1 h; HDL 100 μg/ml; S1P complexes or r-apoM 100 nM
Description: as §1, with “(F). Activation of p44/42 and Akt was examined by Western blot analysis using phospho-specific antibodies.” for “(F).”

quenching of intrinsic fluorescence of mouse r-apoM [1]: quenches the intrinsic fluorescence
Molecule: CCCCCCCCCCCCC/C=C/[C@@H](O)[C@@H](N)COP(=O)(O)O [S1P, Sphingosine-1-phosphate]
IC50 [2]: 900 nM

Molecule: CCCCCCCCc1cccc(NC(=O)[C@H](N)CCP(=O)(O)O)c1 [VPC44116]
effect of S1P1 antagonist pre-treatment on apoM+HDL-stimulated chemotaxis ([3]; 1 μM VPC44116 for 30 min, 10 μg/ml apoM+HDL): abolished | effect of S1P1 antagonist on apoM+HDL-induced p44/42 and Akt phosphorylation [4]: essentially abolished | effect of S1P1 antagonist on cells stimulated by FCS ([4]; FCS stimulation): no inhibitory effects

internalization of GFP-S1P1 receptor [5]: robust internalization
Molecule: albumin-bound S1P: S1P complexed with equi-molar fatty acid free bovine serum albumin, used as a positive control [reference compound]
chemotaxis of HUVEC toward chemoattractant ([3]; serum-starved HUVEC, 4 h at 37° C.): worked as chemoattractants in a concentration-dependent manner | adherens junction and F-actin formation [6]: well-spread, contained F-actin and formed adherens junctions
